Test results from patent US6379670B1, “Methods for treatment of multiple sclerosis using peptide analogs of human myelin basic protein” (Neurocrine Biosciences, Inc., priority 1994, dated 2002).
Non-standard residues stand in square brackets, D forms with d. No end group written: not given here.

Experiments:
[1] = tested on: T cell lines LW 80, 88, 90 and 93; experiment: Specificity and phenotype of APL-reactive T cell lines from patient; format: cell-based, human; conditions: 25 μg/ml antigen
Description: Four cell cultures from one patient ([…], 32% frequency) showing a response (> three-fold over background) were expanded into cell lines (LW 80, 88, 90 and 93) by incubation in IL-2 for 11-14 days (1-2 passages). Once sufficient cells had grown up, they were cultured with either medium alone or 25 μg/ml of either whole MBP, MBP (83-99) or APL NBI-5788. After 24 hours, the supernatants were collected and the level of cytokines determined (see FIGS. 22 to 26). The remaining cultures were pulsed with radiolabeled thymidine and the extent of incorporation determined.

[2] = tested on: T cell cultures from multiple sclerosis patients; experiment: Th2/Th1 (IL-13/IFN-γ) activity of T cell cultures of MS patients by dose group; format: in vivo, human; conditions: 1, 5 and 20 mg dose groups, weeks 3, 5 and 8; most prominently in the 5 and 20 mg dose groups, FIG. 34
Description: T cell analyses (cytokine production) were performed at Week 1 (pre-dosing), at Week 3 (=just prior to third dose), at Week 5 (1 week after last dose) and Week 8 (4 weeks after last dose). Tritiated thymidine uptake was measured using a beta scintillation counter (Topcount, Packard).
Interferon-γ(marker for Th1 activity) and IL-13 (marker for Th2 activity) were measured by Enzyme-Linked Immuno-Assay (ELISA) in T cell culture supernatants collected prior to [^3H]-thymidine incorporation (proliferation assay).
To measure IFN-γ produced by T cell cultures, a sandwich ELISA method was employed. Microtiter plates were coated with 2 μg/ml capture antibody (Pharmingen, San Diego) in 0.1 M NaHCO3 (pH=8.2) overnight at 4° C. Plates were then incubated with blocking buffer (1% solution [w/v] of casein [Sigma] in water, pH=8.2) for at least 30 minutes at room temperature to block non-specific binding sites. […] The reaction was stopped by the addition of 0.2N H2SO4 and absorbance at 450 nm was determined using a microplate spectrophotometer (Molecular Dynamics, Sunnyvale, Calif., USA). […]
To measure IL-13 produced by T cell cultures, a sandwich ELISA method was employed. […] The reaction was stopped by the addition of 0.2N H2SO4 and absorbance at 450 nm was determined using a microplate spectrophotometer (Molecular Dynamics, Sunnyvale, Calif., USA). […]

Substance: MBP(83-99) (83E>a, 84N>K, 89F>L, and 91K>A) ([dA]KPVVHLFANIVTPRTP) [NBI-5788]
- thymidine incorporation of T cell line ([1]; Line 80 of patient): 25,696 ± 408 cpm
- thymidine incorporation of T cell line ([1]; Line 88 of patient): 11,603 ± 424 cpm
- thymidine incorporation of T cell line ([1]; Line 90 of patient): 25,317 ± 8,221 cpm
- thymidine incorporation of T cell line ([1]; Line 93 of patient): 16,197 ± 2,095 cpm
- ratio of overall Th2-type to overall Th1-type activities (IL-13/IFN-γ) [2]: clear shift to an overall Th2 activity
